This note sets out measurements from US10945771B2, “Azabicyclo[4.1.0]heptane allosteric modulators of the M4 muscarinic acetylcholine receptor” (Merck Sharp & Dohme Corp., priority 2017, dated 2021).

The target of the assay is T1, human M4 muscarinic acetylcholine receptor (Homo sapiens, UniProt P08173).
T1 construct: expressed in transfected cells; host or cells: CHO-K1
T1 sequence (P08173 1-479): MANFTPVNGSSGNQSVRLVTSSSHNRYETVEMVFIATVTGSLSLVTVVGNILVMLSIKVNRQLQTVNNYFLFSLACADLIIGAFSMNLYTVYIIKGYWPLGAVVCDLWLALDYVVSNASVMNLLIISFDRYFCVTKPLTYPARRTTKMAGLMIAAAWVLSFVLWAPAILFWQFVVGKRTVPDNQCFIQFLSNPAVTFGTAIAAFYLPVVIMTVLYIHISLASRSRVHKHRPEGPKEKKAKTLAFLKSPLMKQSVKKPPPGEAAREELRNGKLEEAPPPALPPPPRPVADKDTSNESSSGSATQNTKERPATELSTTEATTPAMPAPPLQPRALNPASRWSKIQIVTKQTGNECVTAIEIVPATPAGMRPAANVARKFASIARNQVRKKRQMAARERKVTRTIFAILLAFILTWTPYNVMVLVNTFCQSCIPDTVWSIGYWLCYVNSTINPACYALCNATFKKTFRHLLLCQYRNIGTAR
Nature of the assay: human FLIPR-based M4 PAM assay (Ca2+ dye fluorescence, CHO-K1 cells with human M4 receptor and Gαqi5). The assay is classed as cell-based. Particulars: inflection point (IP) of dose response curve, FLIPR Tetra, acetylcholine at 20% of maximum response. The procedure:
In a typical experiment the M4 muscarinic acetylcholine receptor modulating activity of the compounds of the present invention was determined in accordance with the following experimental method. CHO-K1 cells stably transfected with human M4 receptor and chimeric G-protein Gαqi5 (Coward P, et al., Analytical Biochemistry, 270:242-248 (1999)) are thawed from liquid N2 storage, resuspended in growth medium, plated in black, clear bottom 384 well plates, and incubated 16-20 hours at 37° C., 5% CO2. On the day of assay, growth medium is removed, the cells are washed 2 times with wash buffer, and cells are incubated in dye loading buffer at 37° C., 5% CO2 for ˜1 hour. Following dye loading the cell plates are placed in a FLIPR Tetra instrument and while monitoring dye fluorescence (excitation […]), 10 uL of test substance at increasing concentrations is added, and fluorescence values are recorded for 4 min. Next, 10 uL of acetylcholine is added (final concentration calculated so as to achieve 20% of the maximum acetycholine response), and the fluorescence reading is continued for 3.5 min. In some cases, a third addition of acetylcholine (final concentration calculated to achieve 70% of the maximal acetylcholine response) is performed. The resulting dose response curves are fit to a 4 parameter logistic equation and the final result is determined as the inflection point (IP) of the curve
CHO-K1 cells stably transfected with human M4 receptor and chimeric G-protein Gαqi5 are thawed from liquid N2 storage, resuspended in growth medium, plated in black, clear bottom 384 well plates, and incubated 16-20 hours at 37° C., 5% CO2.
On the day of assay, growth medium is removed, the cells are washed 2 times with wash buffer, and cells are incubated in dye loading buffer at 37° C., 5% CO2 for ˜1 h. Following dye loading the cell plates are placed in a FLIPR Tetra instrument and while monitoring dye fluorescence ([…]), 10 uL of test substance at increasing concentrations is added, and fluorescence values are recorded for 4 min. Next, 10 uL of acetylcholine is added (final concentration calculated so as to achieve 20% of the maximum acetycholine response), and the fluorescence reading is continued for 3.5 min. In some cases, a third addition of acetylcholine (final concentration calculated to achieve 70% of the maximal acetylcholine response) is performed.
The compound `Cc1c(N2CCC(OCC3(C)CC3)C3CC32)nc2c(c1C)C(=O)NC2` (single isomer, unassigned) [Example 1, 3,4-dimethyl-2-(5-((1-methylcyclopropyl)methoxy)-2-azabicyclo[4.1.0]heptan-2-yl)-6,7-dihydro-5H-pyrrolo[3,4-b]pyridin-5-one] displayed a half-maximal effective concentration (EC50) of 39 nM.

`Cc1c(N2CCC(OCC3(C)CC3)C3CC32)nc2c(c1C)C(=O)NC2` (single isomer, unassigned) [Example 2, 3,4-dimethyl-2-(5-((1-methylcyclopropyl)methoxy)-2-azabicyclo[4.1.0]heptan-2-yl)-6,7-dihydro-5H-pyrrolo[3,4-b]pyridin-5-one] came in with an EC50 of 1320 nM. As for `Cc1cc2c(nc1N1CCC(OCC3(C)CC3)C3CC31)CNC2=O` (single isomer, unassigned) [Example 3, 3-methyl-2-(5-((1-methylcyclopropyl)methoxy)-2-azabicyclo[4.1.0]heptan-2-yl)-6,7-dihydro-5H-pyrrolo[3,4-b]pyridin-5-one], the figure is 40 nM; as for `Cc1cc2c(nc1N1CCC(OCC3(C)CC3)C3CC31)CNC2=O` (single isomer, unassigned) [Example 4, 3-methyl-2-(5-((1-methylcyclopropyl)methoxy)-2-azabicyclo[4.1.0]heptan-2-yl)-6,7-dihydro-5H-pyrrolo[3,4-b]pyridin-5-one], 1670 nM. As for `Cc1c(N2CCC(OCC3(C)CC3)C3CC32)nc2c(c1C)C(=O)N(C)C2CO` (single isomer, unassigned) [Example 5, 7-(hydroxymethyl)-3,4,6-trimethyl-2-(5-((1-methylcyclopropyl)methoxy)-2-azabicyclo[4.1.0]heptan-2-yl)-6,7-dihydro-5H-pyrrolo[3,4-b]pyridin-5-one], the figure is 117 nM; as for `Cc1c(N2CCC(OCC3(C)CC3)C3CC32)nc2c(c1C)C(=O)N(C)C2CO` (single isomer, unassigned) [Example 6, 7-(hydroxymethyl)-3,4,6-trimethyl-2-(5-((1-methylcyclopropyl)methoxy)-2-azabicyclo[4.1.0]heptan-2-yl)-6,7-dihydro-5H-pyrrolo[3,4-b]pyridin-5-one], 711 nM. As for `Cc1c(N2CCC(OCC3(C)CC3)C3CC32)nc2c(c1C)C(=O)N(C)C2CO` (single isomer, unassigned) [Example 7, 7-(hydroxymethyl)-3,4,6-trimethyl-2-(5-((1-methylcyclopropyl)methoxy)-2-azabicyclo[4.1.0]heptan-2-yl)-6,7-dihydro-5H-pyrrolo[3,4-b]pyridin-5-one], the figure is 659 nM.

Compound `Cc1c(N2CCC(OCC3(C)CC3)C3CC32)nc2c(c1C)C(=O)N(C)C2CO` (single isomer, unassigned) [Example 8, 7-(hydroxymethyl)-3,4,6-trimethyl-2-(5-((1-methylcyclopropyl)methoxy)-2-azabicyclo[4.1.0]heptan-2-yl)-6,7-dihydro-5H-pyrrolo[3,4-b]pyridin-5-one] yielded an EC50 of 3000 nM.

With `CCc1cc2c(nc1N1CCC(OCC3(C)CC3)C3CC31)C(CO)N(C)C2=O` (single isomer, unassigned) [Example 9, 3-ethyl-7-(hydroxymethyl)-6-methyl-2-(5-((1-methylcyclopropyl)methoxy)-2-azabicyclo[4.1.0]heptan-2-yl)-6,7-dihydro-5H-pyrrolo[3,4-b]pyridin-5-one], it took 8090 nM to reach a half-maximal effect (EC50). Under `CCc1cc2c(nc1N1CCC(OCC3(C)CC3)C3CC31)C(CO)N(C)C2=O` (single isomer, unassigned) [Example 10, 3-ethyl-7-(hydroxymethyl)-6-methyl-2-(5-((1-methylcyclopropyl)methoxy)-2-azabicyclo[4.1.0]heptan-2-yl)-6,7-dihydro-5H-pyrrolo[3,4-b]pyridin-5-one] stands 47 nM; under `CCc1cc2c(nc1N1CCC(OCC3(C)CC3)C3CC31)C(CO)N(C)C2=O` (single isomer, unassigned) [Example 11, 3-ethyl-7-(hydroxymethyl)-6-methyl-2-(5-((1-methylcyclopropyl)methoxy)-2-azabicyclo[4.1.0]heptan-2-yl)-6,7-dihydro-5H-pyrrolo[3,4-b]pyridin-5-one], 742 nM; under `CCc1cc2c(nc1N1CCC(OCC3(C)CC3)C3CC31)C(CO)N(C)C2=O` (single isomer, unassigned) [Example 12, 3-ethyl-7-(hydroxymethyl)-6-methyl-2-(5-((1-methylcyclopropyl)methoxy)-2-azabicyclo[4.1.0]heptan-2-yl)-6,7-dihydro-5H-pyrrolo[3,4-b]pyridin-5-one], 506 nM. As for `Cc1c(N2CCC(OCC3(C)CC3)C3CC32)nc2c(c1C)C(=O)N(CCC#N)C2` (single isomer, unassigned) [Example 15, 3-(3,4-dimethyl-2-(5-((1-methylcyclopropyl)methoxy)-2-azabicyclo[4.1.0]heptan-2-yl)-5-oxo-5,7-dihydro-6H-pyrrolo[3,4-b]pyridin-6-yl)propanenitrile], the figure is 50 nM; as for `Cc1c(N2CCC(OCC3(C)CC3)C3CC32)nc2c(c1C)C(=O)N(CCC#N)C2` (single isomer, unassigned) [Example 16, 3-(3,4-dimethyl-2-(5-((1-methylcyclopropyl)methoxy)-2-azabicyclo[4.1.0]heptan-2-yl)-5-oxo-5,7-dihydro-6H-pyrrolo[3,4-b]pyridin-6-yl)propanenitrile], 1530 nM. As for `Cc1c(N2CCC(OCC3(C)CC3)C3CC32)nc2c(c1C)C(=O)N(CCS(C)(=O)=O)C2` (single isomer, unassigned) [Example 17, 3,4-dimethyl-2-(5-((1-methylcyclopropyl)methoxy)-2-azabicyclo[4.1.0]heptan-2-yl)-6-(2-(methylsulfonyl)ethyl)-6,7-dihydro-5H-pyrrolo[3,4-b]pyridin-5-one], the figure is 103 nM.

The compound `Cc1c(N2CCC(OCC3(C)CC3)C3CC32)nc2c(c1C)C(=O)N(CCS(C)(=O)=O)C2` (single isomer, unassigned) [Example 18] gave a 50% effective concentration (EC50) of 20200 nM. For the compound `Cc1c(N2CCC(OCC3(C)CC3)C3CC32)nc2c(c1C)C(=O)N(CC(C)(C)O)C2` (single isomer, unassigned) [Example 20, 6-(2-hydroxy-2-methylpropyl)-3,4-dimethyl-2-(5-((1-methylcyclopropyl)methoxy)-2-azabicyclo[4.1.0]heptan-2-yl)-6,7-dihydro-5H-pyrrolo[3,4-b]pyridin-5-one], the EC50 is 12000 nM.

`Cc1c(N2CCC(OCC3(C)CC3)C3CC32)nc2c(c1C)C(=O)N1CCC(O)CC21` (single isomer, unassigned) [Example 21, 9-hydroxy-3,4-dimethyl-2-(5-((1-methylcyclopropyl)methoxy)-2-azabicyclo[4.1.0]heptan-2-yl)-8,9,10,10a-tetrahydropyrido[2,3-a]indolizin-5(7H)-one] registered an EC50 of 157 nM. As for `Cc1c(N2CCC(OCC3(C)CC3)C3CC32)nc2c(c1C)C(=O)N1CCC(O)CC21` (single isomer, unassigned) [Example 22, 9-hydroxy-3,4-dimethyl-2-(5-((1-methylcyclopropyl)methoxy)-2-azabicyclo[4.1.0]heptan-2-yl)-8,9,10,10a-tetrahydropyrido[2,3-a]indolizin-5(7H)-one], the figure is 116 nM; as for `Cc1c(N2CCC(OCC3(C)CC3)C3CC32)nc2c(c1C)C(=O)N1CCC(O)CC21` (single isomer, unassigned) [Example 23, 9-hydroxy-3,4-dimethyl-2-(5-((1-methylcyclopropyl)methoxy)-2-azabicyclo[4.1.0]heptan-2-yl)-8,9,10,10a-tetrahydropyrido[2,3-a]indolizin-5(7H)-one], 2350 nM.
